A short description of data set [1]: Whole body NIR imaging (IVIS Kinetic) after intravenous injection. Format: in vivo, Female FVB mice. How it is done: Mice were shaved under isoflurane (1-2%, v/v) anesthesia and underwent baseline scans using an IVIS Kinetic® in vivo imaging system (Caliper Life Sciences, Hopkinton, Mass., USA). Two hundred μl of 8 mg/kg Phospholipon® 50 ICG liposomes or the free compound in 2 mM sucrose buffer (phosphate buffer pH 7, with 9.3% w/w sucrose) were injected into the tail vein and the mice were repetitively scanned over a time period of up to 120 min.
Analysis of in vivo ICG pharmacokinetics (PK), including region of interest (ROI) placement (Living Image; PerkinElmer, Waltham, Mass., USA; (Schneider et al., 2012)) and calculation of the area under the concentration-time curve (AUC) from the time of injection to the time of the last measurement (Phoenix WinNonlin; Certara; St. Louis, Mo., USA), was conducted as previously described (Portnoy et al., 2012). Partial areas were calculated for the AUC between the time of ICG injection (0 min) and 60 or 120 min after injection (AUC0-60 min and AUC0-120 mm, respectively). Data are presented as means±SD. The non-parametric Mann-Whitney or Kruskal-Wallis tests, as appropriate, were used to determine the statistical significance of difference (p<0.05) between experimental groups (InStat; GraphPad, La Jolla, Calif., USA).

A short description of data set [2]: Imaging of surgically exposed kidneys and ureters after midline laparotomy. Format: in vivo, Female FVB mice. The note with it: P<0.01. How it is done: An additional cohort of animals was used for further studies of the accumulation of liposomal ICG in the urinary system. Liposomal or free ICG was injected into the tail vein, and 3 min later, mice were treated with high dose pentobarbital administered intraperitoneally. Overall time of active circulation after the ICG injection was about 10 min. Thereafter, mice were subjected to midline laparotomy with full exposure of the retroperitoneum. The ureters were identified in their origin from the kidneys, and distally clipped or loosely tied for identification. The mice were also hysterectomyzed to ease the urinary bladder identification. Subsequently, the animals were scanned by the Typhoon FLA 9500 biomolecular imager. Each experiment was repeated at least three times.

Data set [3] can be described thus: Fluorescence spectra and relative quantum yield of ICG-adsorbed liposomes vs ICG in aqueous solution. The class given is physicochemical.
Method: The fluorescence spectra of the ICG-adsorbed liposomes prepared were evaluated in comparison to those of ICG in aqueous solution.
The relative quantum yield was calculated according to the following equation (Fery-Forgues and Lavabre, 1999):
where φ is the quantum yield, F is the area under the emission peak (expressed in number of photons), A is absorbance at the excitation wavelength, and n is the refractive index of the solvents. The subscript x denotes the respective values of the sample (liposome-ICG), and s denotes standard (free ICG in buffer).
Data set [4] can be described thus: Stability of ICG absorption at light and at dark over time. The class given is physicochemical. The settings on record: aqueous solution or adsorbed to liposomes. As to the method: The red shift is accompanied with quenching of fluorescence, i.e., the larger the red shift the lower the fluorescence intensity. Because the fluorescence intensity of ICG-liposomes was greater than that of unbound ICG molecules (aqueous solution), the quantum yield ratio between the two states in which ICG is present was determined, for a concentration of 1.28×10^−3 mM. ICG is poorly stable in aqueous solutions due to degradation, and therefore, in order to evaluate the stability of the ICG-adsorbed liposomes, the absorption of this fluorescent probe, when dissolved in an aqueous solution or adsorbed to the liposomes, was measured at light and at dark over time.

A short description of data set [5]: Ureter imaging with ICG-HPβCD inclusion complex vs free ICG (Typhoon imager). The note with it: 8 mg/kg ICG, 10 min post injection. Format: in vivo, female FVB mice. As to the method: 60 mg of ICG (Acros) was solubilized in 12.5 ml of DDW. 2 ml of ICG solution were added to 10 ml of phosphate buffer (pH 7, 2 mM, and sucrose 9.3% w/w). 18.5 mg of HPβCD (Acros) were added to ICG buffered solution and mixed for 10 h at 4° C. […] Mice were sacrificed 10 min post injection and imaged by Typhoon imager (General Electric).

For data set [6] the following is noted: literature (Bax 1980; Cherrick 1960); cited from earlier work.

Values joined by “and” are separate entries in the source; they are usually repeats but may differ in a detail not shown here. Identical values can stand only once.

Take `CC1(C)C(/C=C/C=C/C=C/C=C2\N(CCCCS(=O)(=O)O)c3ccc4ccccc4c3C2(C)C)=[N+](CCCCS(=O)(=O)[O-])c2ccc3ccccc3c21` [free ICG, indocyanine green]: in data set [1] (8 mg/kg ICG i.v., feet-normalized AUC, 0-60 min), the “urinary bladder/feet AUC0-60 min ratio of emission intensity” value is reported as 2.3±0.5. The “urinary bladder/feet AUC0-120 min ratio of emission intensity” value in data set [1] (8 mg/kg ICG i.v., feet-normalized AUC, 0-120 min) stood at 2.3±0.4. The “emission intensity AUC of the urinary bladder relative to that of the feet” value in data set [1] (control mice, 8 mg/kg i.v.) turned out to be 2.3 fold. For the same compound, the “ureteral emission normalized to renal emission (ureters/kidneys ratio)” value in data set [2] was 0.56±0.10 and 0.5. Further, in data set [3] (concentrations above 6.4×10^−3 mM), the “ICG emission peak in water, shift” value is “up to 814 nm”. Also, the “ICG emission peak in water” value in data set [3] (concentrations less than 6.4×10^−3 mM) is reported as 805 nm. In data set [4], the “absorption over time at light and at dark (stability)” value was “decreases over time both in light and in dark”. In addition, in data set [5], the labelling of ureters result was “did not” and the renal excretion entry is on record as “negligibly excreted in the urine”. For the same compound, in data set [6], the “half life in plasma” value is “in the minutes range” and the “renal elimination after systemic administration” value is “negligible”.
